Test results reported in patent US10633338B2, “Binding Function 3 (BF3) site compounds as therapeutics and methods for their use” (THE UNIVERSITY OF BRITISH COLUMBIA, priority 2014, dated 2020).
Read-outs that look alike come from different tables or passages of the source.

Key:
androgen receptor (AR) = target: T1, androgen receptor (AR) (Homo sapiens, UniProt P10275, T878A); assay: eGFP cellular AR transcription assay; format: cell-based; details: 0.1 nM R1881, 3 days incubation
T1 construct: stably transfected eGFP-expressing LNCaP human prostate cancer cells (LN-ARR2PB-eGFP) containing an androgen responsive probasin-derived promoter; endogenous in cells; host or cells: LNCaP (LN-ARR2PB-eGFP)
T1 sequence (P10275 1-920 T878A): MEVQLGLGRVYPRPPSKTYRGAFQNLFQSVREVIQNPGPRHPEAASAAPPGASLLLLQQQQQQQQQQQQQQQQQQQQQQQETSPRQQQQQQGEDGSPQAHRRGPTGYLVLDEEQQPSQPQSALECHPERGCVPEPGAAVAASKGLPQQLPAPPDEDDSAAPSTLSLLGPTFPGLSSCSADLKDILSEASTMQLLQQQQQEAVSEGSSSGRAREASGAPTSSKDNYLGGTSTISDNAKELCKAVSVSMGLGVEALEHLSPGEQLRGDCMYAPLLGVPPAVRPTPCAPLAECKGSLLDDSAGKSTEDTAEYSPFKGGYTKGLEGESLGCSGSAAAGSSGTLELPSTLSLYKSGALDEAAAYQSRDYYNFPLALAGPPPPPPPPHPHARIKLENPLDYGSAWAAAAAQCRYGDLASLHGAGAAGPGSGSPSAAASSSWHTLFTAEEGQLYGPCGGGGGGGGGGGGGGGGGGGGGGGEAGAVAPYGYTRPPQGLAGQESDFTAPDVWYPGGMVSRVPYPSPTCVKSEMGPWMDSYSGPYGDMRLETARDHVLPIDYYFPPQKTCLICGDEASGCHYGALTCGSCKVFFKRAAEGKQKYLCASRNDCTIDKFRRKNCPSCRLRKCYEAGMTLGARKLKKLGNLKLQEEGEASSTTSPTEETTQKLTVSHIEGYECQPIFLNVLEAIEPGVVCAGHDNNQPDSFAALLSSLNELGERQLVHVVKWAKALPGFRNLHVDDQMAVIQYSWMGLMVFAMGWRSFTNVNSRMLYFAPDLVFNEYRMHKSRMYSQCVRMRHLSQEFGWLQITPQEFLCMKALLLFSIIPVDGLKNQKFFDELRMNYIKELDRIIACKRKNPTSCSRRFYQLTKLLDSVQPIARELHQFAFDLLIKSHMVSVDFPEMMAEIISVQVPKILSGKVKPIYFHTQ
In short: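 AR transcriptional activity is read as eGFP expression from a probasin-derived androgen-responsive promoter. Compound titrated 0-100 μM in the presence of 0.1 nM R1881; 35,000 cells/well.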

PSA = assay: Prostate Surface Antigen (PSA) assay, PSA excreted into the media; format: cell-based, human; details: PSA excreted into media, same plates as eGFP assay, 3 days incubation; for IC50: read-out: PSA IC50
Procedure: The evaluation of PSA excreted into the media was performed in parallel to the eGFP assay using the same plates (see above description). After the cells were incubated for 3 days 150 μl of the media was taken from each well, and added to 150 μl of PBS.

[1] = LN-ARR2PBeGFP LNCaP cells, read-out: eGFP IC50
[2] = eGFP IC50, LN-ARR2PBeGFP LNCaP cells

Structure (SMILES)	IC50 (androgen receptor (AR); [1])	IC50 (PSA; Homo sapiens, 72 h)	also measured
Fc1ccc(CSc2c[nH]c3ccccc23)cc1 [Compound 13410]	1200 nM	2030 nM	
Cc1[nH]c2ccccc2c1SCc1ccccc1F [Compound 13411]	2400 nM	2400 nM	
Cc1ccccc1CSc1c(C)[nH]c2ccccc12 [Compound 13412]	900 nM		IC50 (PSA): 1230 nM
Cc1[nH]c2ccccc2c1SCc1ccccc1 [Compound 13416]	2700 nM	2320 nM	
Cc1ccc(/N=N/c2c[nH]c3ccccc23)c(C)c1 [Compound 13423]	1100 nM	1200 nM	
Cc1[nH]c2ccccc2c1/N=N/c1ccccc1C(F)(F)F [Compound 13424]	3700 nM	3580 nM	
NC(=O)c1ccccc1/N=C/c1c[nH]c2ccccc12 [Compound 13427]	400 nM	310 nM	
N#C/C(=C\c1ccc(C(F)(F)F)cc1)c1c[nH]c2ccccc12 [Compound 13434]	800 nM	730 nM	
N#C/C(=C\c1ccc(F)cc1)c1c[nH]c2ccccc12 [Compound 13436]		400 nM	IC50 (androgen receptor (AR); [2]): 600 nM
Fc1ccc2[nH]cc(-c3cc4ccccc4[nH]3)c2c1 [Compound 13500]	1230 nM	410 nM	
CC1(C)c2ccccc2NC1c1c[nH]c2ccccc12 (centres unmarked) [Compound 13506]	180 nM	600 nM	
CC1(C)c2ccccc2NC1C1CN(CCO)c2ccccc21 (centres unmarked) [Compound 13508]	4800 nM	2700 nM	
COc1ccc2[nH]c(-c3c[nH]c4ccccc34)cc2c1 [Compound 13509]	2600 nM	3100 nM	
CC1(C)c2ccccc2NC1c1c[nH]c2ccc(Br)cc12 (centres unmarked) [Compound 13510]	2500 nM	1540 nM	
CC1(C)c2cc(Br)ccc2NC1c1c[nH]c2ccccc12 (centres unmarked) [Compound 13511]	3000 nM	1900 nM	
CC1(C)c2ccccc2NC1c1c[nH]c2cc(Cl)ccc12 (centres unmarked) [Compound 13521]	400 nM	260 nM	
CC1(C)c2ccccc2NC1c1c[nH]c2ccc(Cl)cc12 (centres unmarked) [Compound 13522]	3400 nM	2190 nM	
CC1(C)c2cc(Br)ccc2NC1c1cn(S(=O)(=O)C[C@]23CC[C@@H](CC2=O)C3(C)C)c2ccccc12 (some centres unmarked) [Compound 13524]	4900 nM	6650 nM	
CC1(C)c2ccccc2N(Cc2ccc(O)cc2)C1c1c[nH]c2ccccc12 (centres unmarked) [Compound 13525]	3100 nM	7090 nM	
CC1(C)c2cc(Br)ccc2NC1c1c[nH]c2ccc([N+](=O)[O-])cc12 (centres unmarked) [Compound 13530]	4700 nM	1600 nM	
CCOC(=O)CN1c2ccccc2C(C)(C)C1c1c[nH]c2ccccc12 (centres unmarked) [Compound 13532]	2800 nM	3100 nM	
c1ccc2c(c1)NC(c1c[nH]c3ccccc13)C21CCCCC1 (centres unmarked) [Compound 13534]	800 nM	1250 nM	
Cc1ccc2[nH]cc(C3Nc4ccccc4C3(C)C)c2c1 (centres unmarked) [Compound 13535]	1500 nM	1870 nM	

Structure (SMILES)	IC50 (androgen receptor (AR); [1])	IC50 (PSA; Homo sapiens, 72 h)	also measured
COc1ccc2[nH]cc(C3Nc4ccccc4C3(C)C)c2c1 (centres unmarked) [Compound 13536]	2200 nM	2520 nM	
CC1(C)C(c2c[nH]c3ncccc23)=Nc2ccccc21 [Compound 13537]	700 nM	806 nM	
CC1(C)C(c2c[nH]c3c(O)cccc23)=Nc2ccccc21 [Compound 13541]	500 nM	940 nM	
CC1(C)c2ccc(Br)cc2NC1c1c[nH]c2c(OCc3ccccc3)cccc12 (centres unmarked) [Compound 13543]	3700 nM	3190 nM	
Cc1ccc2[nH]cc(C3Nc4ccccc4C34CCCCC4)c2c1 (centres unmarked) [Compound 13548]	3210 nM	4240 nM	
Cc1cccc2c(C3Nc4ccccc4C34CCCCC4)c[nH]c12 (centres unmarked) [Compound 13549]	1700 nM	2570 nM	
Oc1cccc2c(C3Nc4ccccc4C34CCCCC4)c[nH]c12 (centres unmarked) [Compound 13552]	1130 nM	1140 nM	
COc1cccc2c(-c3cc(C)c4ccccc4n3)c[nH]c12 [Compound 13554]	590 nM	670 nM	
CC1(C)c2ccccc2NC1c1c[nH]c2ncccc12 (centres unmarked) [Compound 13556]	2110 nM		IC50 (PSA): 2180 nM
CC1(C)c2ccccc2NC1c1c[nH]c2c(CO)cccc12 (centres unmarked) [Compound 13558]	1600 nM	2100 nM	
CC1(C)c2ccccc2NC1c1c[nH]c2ncccc12 (centres unmarked) [Compound 13560]	2300 nM		IC50 (PSA): 7500 nM
c1ccc2nc(-c3c[nH]c4ccccc34)ccc2c1 [Compound 13562]	60 nM	140 nM	
CCc1cccc2c(-c3ccc4ccccc4n3)c[nH]c12 [Compound 13567]	200 nM	230 nM	
Brc1ccc2c(-c3ccc4ccccc4n3)c[nH]c2c1 [Compound 13568]	1300 nM	1560 nM	
Fc1ccc2c(-c3ccc4ccccc4n3)c[nH]c2c1 [Compound 13576]	144 nM	48 nM	
Cc1ccc2[nH]cc(-c3ccc4ccccc4n3)c2c1 [Compound 13577]	3200 nM	1730 nM	
c1ccc2nc(-c3n[nH]c4ccccc34)ccc2c1 [Compound 13579]		43 nM	IC50 (androgen receptor (AR); [2]): 101 nM
Brc1cccc2c(-c3ccc4ccccc4n3)c[nH]c12 [Compound 13582]	52 nM	41 nM	
Cc1cccc2c(-c3cnc4ccccc4n3)c[nH]c12 [Compound 13585]	110 nM	39 nM	
c1ccc2nc(-c3c[nH]c4ccccc34)ncc2c1 [Compound 13587]	760 nM	530 nM	
Cc1cccc2c(-c3ccc4ccccc4c3)c[nH]c12 [Compound 13591]	42 nM	85 nM	
Cc1cc(-c2c[nH]c3c(C)cccc23)nc2ccccc12 [Compound 13594]	166 nM	99 nM	
Cc1cc2ccccc2nc1-c1c[nH]c2c(C)cccc12 [Compound 13596]			eGFP IC50 (androgen receptor (AR); LN-ARR2PBeGFP LNCaP cells): Inactive; PSA IC50 (PSA): Inactive
